Test results from PMC9636434, “Discovery of small molecule agonists of the Relaxin Family Peptide Receptor 2” (Communications Biology, 2022).
Values joined by “and” are separate entries in the source; they are usually repeats but may differ in a detail not shown here. Equal values may be shown once. “Also recorded” adds a separate entry of the source. Read-outs that look alike come from different tables or passages of the source.

Key:
mouse RXFP2 = biological target: T1, mouse RXFP2 (Mus musculus, UniProt Q91ZZ5); test: CRE-luciferase reporter assay in HEK293T-CRE-Luc cells transiently transfected with mouse Rxfp2; assay type: cell-based
T1 construct: FLAG (N); expressed in transfected cells; host or cells: HEK293T-CRE-Luc (transient)
Text: Therefore, we examined the capacity of the identified human RXFP2 agonists to activate murine RXFP2. […] The observed difference between CRE-luciferase reporter assays with human and mouse RXFP2 might be due to a lower expression of the receptor in transiently transfected mouse RXFP2 cells compared to the stably transfected human RXFP2 cell line.
HEK293T-CRE-Luc cells express luciferase under the control of the cAMP response element (CRE), which allows for indirect measurement of intracellular cAMP accumulation. HEK293T-CRE-Luc cells were stably transfected with human RXFP2 (HEK-CRE-Luc-RXFP2) or transiently transfected as above with mouse Rxfp2 (HEK-CRE-Luc-Rxfp2). HEK-CRE-Luc-RXFP2 and HEK-CRE-Luc-Rxfp2 cells were seeded at 15,000 and 30,000 cells per well, respectively, in 96-well plates using serum-free DMEM medium and incubated overnight at 37 °C, 5% CO2. After 18 h, cells were treated with a titration of compound, a titration of INSL3, 5 μM forskolin or DMSO vehicle. After treatment, cells were incubated for 3 h at 37 °C, 5% CO2. […] Plates were incubated for 40 min at room temperature protected from light and the luciferase output was read on a CLARIOstar plate reader. […]
Results are expressed as mean ± SEM of 3 independent experim ents. […]

[1] = Pharmacokinetic study, 3 mg/kg IV, 10 mg/kg PO and 10 mg/kg PO QD*3, plasma, liver and bone; assay type: in vivo, mouse; conditions: for Plasma concentration: individual values (1)-(3)
Protocol: The concentration of compound in plasma, liver, and long bones was detected using liquid chromatography tandem mass spectrometry (LC-MS/MS). Samples were collected after a single intraperitoneal (IP) administration at 30 mg/kg, a single intravenous (IV) administration at 3 mg/kg, a single oral (PO) administration at 10 mg/kg, and a daily PO administration for 3 consecutive days at 10 mg/kg. The compound was formulated in 75% PEG300 + 25% of 40% aq. HPBCD for IV and PO administration and in 60% Phosal + 40% PEG300 for IP administration. All tissue samples were homogenized in water at a tissue weight to water volume ratio 1:3.
IV administration, one 10 mg/kg PO administration and three 10 mg/kg PO administrations (QD*3). a Plasma, b liver and c bone profiles in female mice. The actual concentration (ng/g) is the detected value (ng/mL) multiplied by 4. Drug vehicle is 25% aq. 40% HP-b-CD - 75% PEG300. 3 mice were used per time point. Results are expressed as the mean ± SEM.

[2] = female, C57BL/6J, mouse, bone (long bones), iv, 3 mg/kg, bone, IV, individual animals, read-out: Bone 6641 IV concentration
[3] = female, C57BL/6J, mouse, bone (long bones), po, 10 mg/kg, bone, PO (QD*3), individual animals, read-out: Bone 6641 PO (QD*3) concentration

T1 sequence (Q91ZZ5 whole entry): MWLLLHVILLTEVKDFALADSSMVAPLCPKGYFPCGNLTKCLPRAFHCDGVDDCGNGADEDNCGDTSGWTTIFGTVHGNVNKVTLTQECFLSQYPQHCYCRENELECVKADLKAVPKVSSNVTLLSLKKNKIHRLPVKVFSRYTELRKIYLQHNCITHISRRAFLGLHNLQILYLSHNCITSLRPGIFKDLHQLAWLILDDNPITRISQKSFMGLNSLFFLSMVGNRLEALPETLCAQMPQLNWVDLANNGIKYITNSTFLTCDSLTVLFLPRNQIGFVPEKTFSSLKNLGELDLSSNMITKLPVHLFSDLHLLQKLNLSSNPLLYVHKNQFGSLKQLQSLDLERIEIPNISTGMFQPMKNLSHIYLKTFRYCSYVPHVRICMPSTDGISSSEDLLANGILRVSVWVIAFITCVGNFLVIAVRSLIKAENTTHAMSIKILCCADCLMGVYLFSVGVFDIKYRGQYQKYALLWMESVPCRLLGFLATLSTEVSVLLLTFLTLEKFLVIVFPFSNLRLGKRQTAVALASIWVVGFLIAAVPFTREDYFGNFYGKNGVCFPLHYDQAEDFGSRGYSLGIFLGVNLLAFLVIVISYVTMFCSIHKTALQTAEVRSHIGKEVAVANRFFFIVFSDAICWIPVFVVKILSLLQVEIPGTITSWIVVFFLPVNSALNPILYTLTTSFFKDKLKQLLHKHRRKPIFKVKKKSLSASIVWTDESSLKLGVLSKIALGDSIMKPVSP

Question: What does the source list for `O=C1Nc2ccc(-c3cc(C(F)(F)F)cc(C(F)(F)F)c3)cc2C(=O)N2CCN(C(=O)COc3ccc(OC(F)(F)F)cc3I)C[C@@H]12` [compound 6641]?
Answer: activation at 0.0251 µM (mouse RXFP2; mouse RXFP2, Log [M] -7.60, experiments (1)-(3), read-out: % Eff (CRE-luciferase)): 28.9%; agonism of mouse RXFP2 in CRE-luciferase reporter assay (mouse RXFP2; transiently transfected cells): activate the mouse RXFP2 receptor; also recorded: full agonist; accumulation ([1]; 10 mg/kg PO daily for 3 consecutive days): no accumulation; half-life ([1]; C57BL/6J, mouse, in vivo, female mice, depending on the route of administration (3 mg/kg IV, 10 mg/kg PO)): 4 to 6.5 h; bioavailability ([1]; C57BL/6J, mouse, plasma, 10 mg/kg PO, female mice): 25 to 31%; maximum concentration in bone tissue ([1]; IV administration, 3 mg/kg): 1072 ng/g; Plasma concentration ([1]; IV, Time 0.083 h): 2772 ng/mL and 2884 ng/mL; Plasma concentration ([1]; IV, Time 0.25 h): 1472 ng/mL and 1152 ng/mL; Plasma concentration ([1]; IV, Time 0.5 h): 786 ng/mL and 964 ng/mL; Plasma concentration ([1]; IV, Time 1 h): 583 ng/mL and 464 ng/mL; Plasma concentration ([1]; IV, Time 3 h): 259 ng/mL and 205 ng/mL; Plasma concentration ([1]; IV, Time 7 h): 84.8 ng/mL and 68.4 ng/mL; Plasma concentration ([1]; IV, Time 24 h): 4.08 ng/mL and 5.43 ng/mL; Plasma concentration ([1]; IV, Time 48 h, N/A: Below detection level): 0.868 ng/mL; Plasma concentration ([1]; PO (QD*3), Time 0.083 h): 7.56 ng/mL and 5.2 ng/mL; Plasma concentration ([1]; PO (QD*3), Time 0.25 h): 57.1 ng/mL and 50.6 ng/mL; Plasma concentration ([1]; PO (QD*3), Time 0.5 h): 185 ng/mL and 245 ng/mL and 104 ng/mL; Plasma concentration ([1]; PO (QD*3), Time 1 h): 484 ng/mL and 346 ng/mL; Plasma concentration ([1]; PO (QD*3), Time 3 h): 344 ng/mL; Plasma concentration ([1]; PO (QD*3), Time 7 h): 125 ng/mL and 179 ng/mL; Plasma concentration ([1]; PO (QD*3), Time 24 h): 3.9 ng/mL and 5.49 ng/mL; Plasma concentration ([1]; PO (QD*3), Time 48 h, N/A: Below detection level): 1 ng/mL; maximum concentration in bone tissue ([1]; PO administration, 10 mg/kg): 170 to 300 ng/g; Plasma concentration ([1]; PO, Time 0.25 h): 32.7 ng/mL and 59.5 ng/mL; Plasma concentration ([1]; PO, Time 0.5 h): 159 ng/mL and 69 ng/mL and 120 ng/mL; Plasma concentration ([1]; PO, Time 1 h): 406 ng/mL and 323 ng/mL; Plasma concentration ([1]; PO, Time 3 h): 247 ng/mL and 204 ng/mL; Plasma concentration ([1]; PO, Time 7 h): 141 ng/mL and 122 ng/mL; Plasma concentration ([1]; PO, Time 24 h): 8.08 ng/mL and 4.6 ng/mL; concentration at 0.5 h ([1]; female, C57BL/6J, mouse, bone (long bones), 10 mg/kg, bone, PO, individual animals, read-out: Bone 6641 PO concentration): 20.3 ng/g; concentration at 0.083 h [1, 2]: 1180 ng/g; concentration at 0.25 h [1, 2]: 1100 ng/g; concentration at 0.5 h [1, 2]: 711 ng/g; concentration at 1 h [1, 2]: 632 ng/g; concentration at 3 h [1, 2]: 337 ng/g; concentration at 7 h [1, 2]: 87.9 ng/g; concentration at 48 h ([1]; female, C57BL/6J, mouse, bone (long bones), iv, 3 mg/kg, bone, IV, 48 h, individual animals, N/A: Below detection level, read-out: Bone 6641 IV concentration): 3.84 ng/g; concentration at 0.25 h [1, 3]: 19.5 ng/g; concentration at 0.5 h [1, 3]: 54.2 ng/g; concentration at 1 h [1, 3]: 168 ng/g; concentration at 3 h [1, 3]: 337 ng/g; concentration at 7 h [1, 3]: 141 ng/g; concentration at 24 h ([1]; female, C57BL/6J, mouse, bone (long bones), po, 10 mg/kg, bone, PO (QD*3), 24 h, individual animals, read-out: Bone 6641 PO (QD*3) concentration): 7.05 ng/g; concentration at 0.083 h ([1]; female, C57BL/6J, mouse, bone (long bones), po, 10 mg/kg, bone, PO, individual animals, N/A: Below detection level, read-out: Bone 6641 PO concentration): 3.07 ng/g
